The values that follow come from patent US20090022803A1, “Oral Formulations For Delivery of Catecholic Butanes Including Ndga Compounds” (priority 2005, published 2009).

Structures are written as SMILES.

The nature of this data set: Oral fed/fasted IV/oral pharmacokinetic comparison of M4N formulations, single 75 mg/kg dose. The following applies: dogs, single 75 mg/kg oral or IV.

For `COc1ccc(C[C@@H](C)[C@@H](C)Cc2ccc(OC)c(OC)c2)cc1OC` [Formulation M4N, meso-1,4-bis(3,4-dimethoxyphenyl)-2,3-dimethylbutane], the survival entry is given as “All animals survived”.
